Experimental data as given in patent publication US9757316B2, “Zinc-lysine complex” (Colgate-Palmolive Company, priority 2012, dated 2017).

How the values were obtained:
[1] = Hydrolysis reaction: pH and turbidity of diluted ZLC solutions before and after aging; format: physicochemical; conditions: for pH after aging / turbidity after aging (NTU): aged in 37° C. oven over 5 hours; for initial pH / initial turbidity (NTU): before aging; for initial turbidity (NTU): nephelometer
Procedure: Hydrolysis reaction: A 185 mg/ml ZLC solution is prepared and diluted several-fold and aged in a 37° C. oven over 5 hours for turbidity studies. […] Turbidity of the solutions is measured using a nephelometer, results being given in nephelometric turbidity units (NTU).
The precipitates formed in the 8×, 16× and 32× diluted solutions are collected by centrifugation and identified as crystalline ZnO by PXRD. From the supernatant, a single crystal is grown and shown by X-ray diffraction to be Lysine Monohydrochloride Dihydrate (LysineHCl·2H2O).
The mechanism of the ZLC hydrolysis reaction can be expressed as [Zn(Lysine)2Cl]^+Cl^−·2H2O+H2O→ZnO+Lysine·HCl·2H2O

[2] = target: Bovine Serum Albumin (BSA) (Bos taurus, UniProt P02769); test: Flocculation: interaction of ZLC with BSA solutions (turbidity, pH, observation); format: physicochemical; conditions: for Turbidity (NTU) / observation / pH: ZLC about 15 mg/ml, 5 hours at 37° C.
Chain of Bovine Serum Albumin (BSA) (P02769 25-607): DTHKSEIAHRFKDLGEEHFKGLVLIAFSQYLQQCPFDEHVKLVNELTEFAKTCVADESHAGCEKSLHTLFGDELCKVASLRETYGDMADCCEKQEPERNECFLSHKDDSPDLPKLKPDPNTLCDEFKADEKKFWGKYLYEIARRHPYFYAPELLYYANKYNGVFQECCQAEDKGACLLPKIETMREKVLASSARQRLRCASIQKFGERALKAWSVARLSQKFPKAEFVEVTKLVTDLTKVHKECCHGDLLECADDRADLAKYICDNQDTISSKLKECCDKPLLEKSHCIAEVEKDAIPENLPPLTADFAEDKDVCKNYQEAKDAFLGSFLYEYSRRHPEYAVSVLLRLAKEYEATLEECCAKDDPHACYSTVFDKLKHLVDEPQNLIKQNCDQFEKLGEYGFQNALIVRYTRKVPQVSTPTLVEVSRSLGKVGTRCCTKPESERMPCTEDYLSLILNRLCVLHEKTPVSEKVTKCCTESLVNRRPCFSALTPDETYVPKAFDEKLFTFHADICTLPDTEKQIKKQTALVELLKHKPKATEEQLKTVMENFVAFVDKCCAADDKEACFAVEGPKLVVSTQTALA
Procedure: Turbidity and pH of solutions are measured 5 hours after the mixtures were placed in a 37° C. oven, and the results are shown in Table 3.

[3] = sample 1: DI water, 0% BSA, initial pH 6.4
[4] = sample 2: 1% BSA, initial pH 7.2
[5] = sample 3: 1% BSA, pH adjusted to 5.1

For NCCCCC(N)C(=O)O.NCCCCC(N)C(=O)O.O.O.[Cl-].[Cl-].[Zn+2] (centres unmarked) [ZLC, [Zn(C6H14N2O2)2Cl]^+Cl^−], the pH after aging ([1]; 5.78 mg/ml ZLC solution) was 8, the “turbidity after aging (NTU)” value ([1]; 5.78 mg/ml ZLC solution) was over 1000 NTU and the “initial pH” value ([1]; 5.78 mg/ml ZLC solution) was 8. The “initial turbidity (NTU)” value ([1]; 5.78 mg/ml ZLC solution) was 40.1 NTU, the pH after aging ([1]; 11.56 mg/ml ZLC solution) was 7.8 and the “turbidity after aging (NTU)” value ([1]; 11.56 mg/ml ZLC solution) was over 1000 NTU. The “initial pH” value ([1]; 11.56 mg/ml ZLC solution) was 7.8, the “initial turbidity (NTU)” value ([1]; 11.56 mg/ml ZLC solution) was 14.8 NTU and the pH after aging ([1]; 23.125 mg/ml ZLC solution) was 7.7. The “turbidity after aging (NTU)” value ([1]; 23.125 mg/ml ZLC solution) was 247.4 NTU, the “initial pH” value ([1]; 23.125 mg/ml ZLC solution) was 7.7 and the “initial turbidity (NTU)” value ([1]; 23.125 mg/ml ZLC solution) was 0.7 NTU. The pH after aging ([1]; 46.25 mg/ml ZLC solution) was 7.4, the “turbidity after aging (NTU)” value ([1]; 46.25 mg/ml ZLC solution) was 2.8 NTU and the “initial pH” value ([1]; 46.25 mg/ml ZLC solution) was 7.4. The “initial turbidity (NTU)” value ([1]; 46.25 mg/ml ZLC solution) was 1.5 NTU, the pH after aging ([1]; 92.5 mg/ml ZLC solution) was 7 and the “turbidity after aging (NTU)” value ([1]; 92.5 mg/ml ZLC solution) was 2.6 NTU. For the same compound, the “initial pH” value ([1]; 92.5 mg/ml ZLC solution) was 7, the “initial turbidity (NTU)” value ([1]; 92.5 mg/ml ZLC solution) was 2.8 NTU and the pH after aging ([1]; 185 mg/ml ZLC solution) was 6.8. For the same compound, the “turbidity after aging (NTU)” value ([1]; 185 mg/ml ZLC solution) was 4.1 NTU, the “initial pH” value ([1]; 185 mg/ml ZLC solution) was 6.8 and the “initial turbidity (NTU)” value ([1]; 185 mg/ml ZLC solution) was 4.7 NTU. The “stability of the complex upon dilution with water” value ([1]; precipitates of 8×, 16× and 32× diluted solutions identified as crystalline ZnO by PXRD) was “disassociates upon dilution”, the protein flocculation ([2]; BSA as protein) was “ability to flocculate proteins” and the “Turbidity (NTU)” value [2, 3] was 357 NTU. For the same compound, the observation [2, 3] was “slightly cloudy”, the pH [2, 3] was 8 and the “Turbidity (NTU)” value [2, 4] was over 1000 NTU. The observation [2, 4] was “very cloudy”, the pH [2, 4] was 8.2 and the “Turbidity (NTU)” value [2, 5] was over 1000 NTU. The observation [2, 5] was “very cloudy” and the pH [2, 5] was 8.
